# Measured values as given in patent publication US20250197359A1, “CANNABINOID RECEPTOR MODULATING COMPOUNDS” (The U.S.A., as Represented by the Secretary, Department of …, priority 2022, published 2025).
# pIC50, pKi: −log10 of the molar value. Several values for one entry are separate records, joined by “and”; a condition that tells them apart may be missing. Equal entries are not always repeated.
# Legend:
# CB1 = CB1 (UniProt P21554); assay: CB1 radioligand binding assay; set-up: species or system human; settings: read-out: Ki (CB1)
# Description: The target compounds were evaluated in vitro at the human CB1 receptor, stably expressed into Chinese hamster ovary (CHO) cells by utilizing radioligand binding studies.
# The binding constant for the synthesized compounds were determined by using radioligand binding assay in mouse brain membranes as well as the target compounds were evaluated in vitro at the human CB1 receptor, stably expressed into Chinese hamster ovary (CHO) cells as well as mouse brain membrane CB1. […]
# Brain/CB1 = molecular target: T1, Brain/CB1 (Mus musculus, UniProt P47746); assay: Functional GTPγS binding, Brain/CB1; assay type: biochemical
# T1 construct: from tissue; host or cells: mouse brain membranes
# From the text: Furthermore, the intermediates urea compounds 8a-m were chlorinated with phosphorus oxychloride in the presence of DIPEA base to form imidoyl chloride intermediate and reacted with acetamidine hydrochloride/methyl carbamimidothioate iodide/methyl carbamimidoselenoate iodide and other amines to furnish the target compounds (10a-34b) (Scheme 2, FIG. 2, Scheme 5, FIG. 5). The urea derivatives were converted to the thiourea derivatives 9a-9d by employing sodium thiosulfate. Compound 8a-b, 8e-f were converted to corresponding thiourea by employing sodium thiosulfate dissolved in water dioxane mixture and the reaction was heated to 85° C. for 2 h. […] The binding constant for the synthesized compounds were determined by using radioligand binding assay in mouse brain membranes as well as the target compounds were evaluated in vitro at the human CB1 receptor, stably expressed into Chinese hamster ovary (CHO) cells as well as mouse brain membrane CB1.
# T1 sequence (P47746 whole entry): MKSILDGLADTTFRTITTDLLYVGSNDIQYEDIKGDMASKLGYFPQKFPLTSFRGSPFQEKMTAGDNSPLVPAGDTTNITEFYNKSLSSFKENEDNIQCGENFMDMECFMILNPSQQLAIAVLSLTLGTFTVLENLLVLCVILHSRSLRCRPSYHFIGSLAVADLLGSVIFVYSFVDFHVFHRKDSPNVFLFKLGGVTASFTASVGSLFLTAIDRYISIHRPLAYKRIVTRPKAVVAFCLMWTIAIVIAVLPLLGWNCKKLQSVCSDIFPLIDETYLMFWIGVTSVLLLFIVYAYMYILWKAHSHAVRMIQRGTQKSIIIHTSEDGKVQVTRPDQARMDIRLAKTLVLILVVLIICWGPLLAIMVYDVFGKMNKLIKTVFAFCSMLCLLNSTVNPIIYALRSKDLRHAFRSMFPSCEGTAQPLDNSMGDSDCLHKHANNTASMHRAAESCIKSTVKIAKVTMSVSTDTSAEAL
Compound,pKi (CB1),pIC50 (Brain/CB1)
"CC(N/C(=N/S(=O)(=O)c1ccc(C(F)(F)F)cc1)N1CCC(c2ccccc2)C(c2ccc(Cl)cc2)=N1)C(N)=O (single isomer, unassigned) [Compound 31b, (Z)-2-(3-(4-chlorophenyl)-4-phenyl-N′-((4-(trifluoromethyl)phenyl)sulfonyl)-1,4,5,6-tetrahydropyridazine-1-carboximidamido) propenamide]",8.09,7.48
"C/C(N)=N\C(=N\S(=O)(=O)c1cccc(C(F)(F)F)c1)N1CCC(c2ccccc2)C(c2ccc(Cl)cc2)=N1 (stereo not drawn) [Compound 10c, (Z)—N—((E)-1-aminoethylidene)-3-(4-chlorophenyl)-4-phenyl-N′-((3-(trifluoromethyl)phenyl)sulfonyl)-5,6-dihydropyridazine-1 (4H)-carboximidamide]",7.55,6.98
"C/C(N)=N\C(=N\S(=O)(=O)c1ccc2ccccc2c1)N1CCC(c2ccccc2)C(c2ccc(Cl)cc2)=N1 (stereo not drawn) [Compound 10f, (Z)—N—((E)-1-aminoethylidene)-3-(4-chlorophenyl)-N′-(naphthalen-2-ylsulfonyl)-4-phenyl-5,6-dihydropyridazine-1 (4H)-carboximidamide]",7.50,6.88
"C/C(N)=N\C(=N\S(=O)(=O)c1ccccc1)N1CCC(c2ccccc2)C(c2ccc(Cl)cc2)=N1 (stereo not drawn) [Compound 10g, (Z)—N—((E)-1-aminoethylidene)-3-(4-chlorophenyl)-4-phenyl-N′-(phenylsulfonyl)-5,6-dihydropyridazine-1 (4H)-carboximidamide]",6.89 and 6.67,6.45
"COc1ccc(S(=O)(=O)/N=C(/N=C(\C)N)N2CCC(c3ccccc3)C(c3ccc(Cl)cc3)=N2)cc1 (stereo not drawn) [Compound 10h, (Z)—N—((E)-1-aminoethylidene)-3-(4-chlorophenyl)-N′-((4-methoxyphenyl)sulfonyl)-4-phenyl-5,6-dihydropyridazine-1 (4H)-carboximidamide]",6.98,6.45
"C/C(N)=N\C(=N\S(=O)(=O)c1ccc(I)cc1)N1CCC(c2ccccc2)C(c2ccc(Cl)cc2)=N1 (stereo not drawn) [Compound 10i, (Z)—N—((E)-1-aminoethylidene)-3-(4-chlorophenyl)-N′-((4-iodophenyl)sulfonyl)-4-phenyl-5,6-dihydropyridazine-1 (4H)-carboximidamide]",7.37,6.93
"C/C(N)=N\C(=N\S(=O)(=O)c1ccc(F)cc1)N1CCC(c2ccccc2)C(c2ccc(Cl)cc2)=N1 (stereo not drawn) [Compound 10j, (Z)—N—((E)-1-aminoethylidene)-3-(4-chlorophenyl)-N′-((4-fluorophenyl)sulfonyl)-4-phenyl-5,6-dihydropyridazine-1 (4H)-carboximidamide]",7.23,6.74
"C/C(N)=N\C(=N\S(=O)(=O)c1ccccc1C(F)(F)F)N1CCC(c2ccccc2)C(c2ccc(Cl)cc2)=N1 (stereo not drawn) [Compound 10k, (Z)—N—((E)-1-aminoethylidene)-3-(4-chlorophenyl)-4-phenyl-N′-((2-(trifluoromethyl)phenyl)sulfonyl)-5,6-dihydropyridazine-1 (4H)-carboximidamide]",7.30,6.90
"N/C(=N\C(=N\S(=O)(=O)c1ccc(C(F)(F)F)cc1)N1CCC(c2ccccc2)C(c2ccc(Cl)cc2)=N1)c1ccccc1 (stereo not drawn) [Compound 10r, (Z)—N—((Z)-amino (phenyl)methylene)-3-(4-chlorophenyl)-4-phenyl-N′-((4-(trifluoromethyl)phenyl)sulfonyl)-5,6-dihydropyridazine-1 (4H)-carboximidamide]",7.48,6.71
"N/C(=N\C(=N\S(=O)(=O)c1ccc(C(F)(F)F)cc1)N1CCC(c2ccccc2)C(c2ccc(Cl)cc2)=N1)c1ccccc1F (stereo not drawn) [Compound 10t, (Z)—N—((Z)-amino (2-fluorophenyl)methylene)-3-(4-chlorophenyl)-4-phenyl-N′-((4-(trifluoromethyl)phenyl)sulfonyl)-5,6-dihydropyridazine-1 (4H)-carboximidamide]",8.13,7.60
"N/C(=N\C(=N\S(=O)(=O)c1ccc(C(F)(F)F)cc1)N1CCC(c2ccccc2)C(c2ccc(Cl)cc2)=N1)c1ccc(F)cc1 (stereo not drawn) [Compound 10u, (Z)—N—((Z)-amino (4-fluorophenyl)methylene)-3-(4-chlorophenyl)-4-phenyl-N′-((4-(trifluoromethyl)phenyl)sulfonyl)-5,6-dihydropyridazine-1 (4H)-carboximidamide]",7.56,6.97
"N/C(=N\C(=N\S(=O)(=O)c1ccc(C(F)(F)F)cc1)N1CCC(c2ccccc2)C(c2ccc(Cl)cc2)=N1)c1ccccn1 (stereo not drawn) [Compound 10v, (Z)—N—((Z)-amino (pyridin-2-yl)methylene)-3-(4-chlorophenyl)-4-phenyl-N′-((4-(trifluoromethyl)phenyl)sulfonyl)-5,6-dihydropyridazine-1 (4H)-carboximidamide]",8.15,7.59
"N/C(=N\C(=N\S(=O)(=O)c1ccc(C(F)(F)F)cc1)N1CCC(c2ccccc2)C(c2ccc(Cl)cc2)=N1)c1cccs1 (stereo not drawn) [Compound 10w, (Z)—N—((Z)-amino (thiophen-2-yl)methylene)-3-(4-chlorophenyl)-4-phenyl-N′-((4-(trifluoromethyl)phenyl)sulfonyl)-5,6-dihydropyridazine-1 (4H)-carboximidamide]",6.85,6.63

# Second part, the molecule after the results:
pKi (CB1),pIC50 (Brain/CB1),Compound
7.11,6.76,"CCC(N/C(=N/S(=O)(=O)c1ccc(C(F)(F)F)cc1)N1CCC(c2ccccc2)C(c2ccc(Cl)cc2)=N1)C(N)=O (single isomer, unassigned) [Compound 32b, (Z)-2-(3-(4-chlorophenyl)-4-phenyl-N′-((4-(trifluoromethyl)phenyl)sulfonyl)-1,4,5,6-tetrahydropyridazine-1-carboximidamido) butanamide]"
7.18,6.37,"NC(=O)C(Cc1ccccc1)N/C(=N/S(=O)(=O)c1ccc(C(F)(F)F)cc1)N1CCC(c2ccccc2)C(c2ccc(Cl)cc2)=N1 (single isomer, unassigned) [Compound 33a, (Z)-2-(3-(4-chlorophenyl)-4-phenyl-N′-((4-(trifluoromethyl)phenyl)sulfonyl)-1,4,5,6-tetrahydropyridazine-1-carboximidamido)-3-phenylpropanamide]"
8.21,7.92,"NC(=O)C(Cc1ccccc1)N/C(=N/S(=O)(=O)c1ccc(C(F)(F)F)cc1)N1CCC(c2ccccc2)C(c2ccc(Cl)cc2)=N1 (single isomer, unassigned) [Compound 33b, (Z)-2-(3-(4-chlorophenyl)-4-phenyl-N′-((4-(trifluoromethyl)phenyl)sulfonyl)-1,4,5,6-tetrahydropyridazine-1-carboximidamido)-3-phenylpropanamide]"
7.33,7.39,"COC(=O)C(N/C(=N/S(=O)(=O)c1ccc(C(F)(F)F)cc1)N1CCC(c2ccccc2)C(c2ccc(Cl)cc2)=N1)C(C)C (single isomer, unassigned) [Compound 34a]"
8.57,7.77,"COC(=O)C(N/C(=N/S(=O)(=O)c1ccc(C(F)(F)F)cc1)N1CCC(c2ccccc2)C(c2ccc(Cl)cc2)=N1)C(C)C (single isomer, unassigned) [Compound 34b]"
